# Values quoted from earlier work as cited in patent publication US20080194494A1, “4-Biarylyl-1-Phenylazetidin-2-One Glucuronide Derivatives for Hypercholesterolemia” (MICROBIA, INC., priority 2005, published 2008).
# What was measured:
# [1] = in humans
# [2] = in vivo
smiles,measurement,setting,value
"O=C1[C@H](CC[C@H](O)c2ccc(F)cc2)[C@@H](c2ccc(O)cc2)N1c1ccc(F)cc1 [ezetimibe, (3R,4S)-1-(4-fluorophenyl)-3-[(3S)-3-(4-fluorophenyl)-3-hydroxypropyl]-4-(4-hydroxyphenyl)azetidin-2-one]",effect on fat-soluble vitamin absorption,[1],does not appear to affect
same,inhibition of the absorption of taurocholic acid,[2],does not inhibit
